Experimental data: EP4567040A1, “CRYSTAL FORM OF FUSED TRICYCLIC DERIVATIVE AND PREPARATION METHOD” (Jiangsu Hengrui Pharmaceuticals Co., Ltd., priority 2022, dated 2024)

Target: T1, CDK9/CyclinT1 (Homo sapiens, UniProt P50750)
T1 construct: purchased Wuxi Biortus BP480/792/691
Test: Kinase activity assay, ADP-Glo (CDK9/CyclinT1)
Assay type: biochemical
Details: Table 18; read-out: CDK9/T1 IC50
Protocol: The starting concentration for the in vitro CDK (CDK2 and CDK9) kinase activity assay was 1 µM and was 3-fold diluted to a total of 10 concentrations, and each concentration was tested in duplicate. The compound PHA-793887 was used as a control compound.
A 1× kinase reaction buffer (40 mM Tris-HCl, pH 7.4, 20 mM […], 0.1 mg/mL BSA, 50 µM DTT), 1 volume of 5× kinase reaction buffer, and 4 volumes of water were prepared, and DTT (final concentration: 50 µM) was added. 50 nL of diluted compound working solution (final concentration of DMSO: 1%) was transferred to each well of a reaction plate (784075, Greiner) using Echo655. The reaction plate was sealed with a plate sealing film and centrifuged at 1000 g for 1 min. 2× enzyme (0.3 ng/µL CDK2/CyclinE1 or CDK9/CyclinT1) was prepared using the 1× kinase reaction buffer. 2.5 µL of the above kinase solution was added to each well. The reaction plate was sealed with a plate sealing film, centrifuged at 1000 g for 1 min, and left to stand at room temperature for 10 min. A mixture of 2× kinase substrate and ATP was prepared using the 1× kinase reaction buffer. 2× CDK2/CylinE1 kinase substrate was 0.4 mg/mL Histone H1 and 30 µM ATP. 2.5 µL of the mixture of 2× Histone H1 and ATP was added to the reaction plate. The plate was centrifuged at 1000 g for 30 s, and the reaction was started. […] The luminescence signals were obtained using Envision 2104. […]

T1 sequence (P50750 whole entry, species assumed): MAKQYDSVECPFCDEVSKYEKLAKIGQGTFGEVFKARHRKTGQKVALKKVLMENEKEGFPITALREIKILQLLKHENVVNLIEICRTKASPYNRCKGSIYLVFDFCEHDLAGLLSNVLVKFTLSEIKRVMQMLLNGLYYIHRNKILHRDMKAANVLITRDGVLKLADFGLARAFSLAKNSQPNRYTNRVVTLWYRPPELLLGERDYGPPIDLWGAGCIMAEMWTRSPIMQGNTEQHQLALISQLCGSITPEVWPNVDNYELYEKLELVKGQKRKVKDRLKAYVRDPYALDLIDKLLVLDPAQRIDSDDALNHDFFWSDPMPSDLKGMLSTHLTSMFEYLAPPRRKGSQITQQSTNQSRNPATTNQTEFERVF
T1 sequence (O60563 whole entry partner, species assumed): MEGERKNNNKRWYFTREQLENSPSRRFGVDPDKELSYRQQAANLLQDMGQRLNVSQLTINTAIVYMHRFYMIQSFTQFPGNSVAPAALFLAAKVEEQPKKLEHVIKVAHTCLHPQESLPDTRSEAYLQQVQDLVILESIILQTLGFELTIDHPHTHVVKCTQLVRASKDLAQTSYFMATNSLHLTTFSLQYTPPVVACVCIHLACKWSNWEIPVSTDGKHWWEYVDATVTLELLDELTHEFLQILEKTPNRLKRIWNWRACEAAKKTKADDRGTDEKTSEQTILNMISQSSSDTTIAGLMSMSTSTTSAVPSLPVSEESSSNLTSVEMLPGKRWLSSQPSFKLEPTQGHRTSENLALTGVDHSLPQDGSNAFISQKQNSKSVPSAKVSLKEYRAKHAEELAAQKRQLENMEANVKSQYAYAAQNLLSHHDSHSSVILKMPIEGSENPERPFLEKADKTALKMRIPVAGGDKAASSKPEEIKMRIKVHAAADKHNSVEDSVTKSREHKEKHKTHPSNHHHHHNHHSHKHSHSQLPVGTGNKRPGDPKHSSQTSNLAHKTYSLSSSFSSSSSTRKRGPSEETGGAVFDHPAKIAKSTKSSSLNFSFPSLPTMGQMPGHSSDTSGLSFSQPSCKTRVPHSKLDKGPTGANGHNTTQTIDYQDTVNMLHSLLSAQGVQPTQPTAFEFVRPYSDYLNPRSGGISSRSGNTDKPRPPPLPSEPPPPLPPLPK

C[C@H]1COc2c(-c3nc(N[C@@H]4CCOC[C@H]4O)ncc3Cl)cc(F)c3nc(C(C)(C)O)n1c23 (single isomer, unassigned) [Isomer 1 with a retention time of 2.078 min]
IC50: > 1000 nM

C[C@@H]1COc2c(-c3nc(N[C@@H]4CCOC[C@H]4O)ncc3Cl)cc(F)c3nc(C(C)(C)O)n1c23 (single isomer, unassigned) [Isomer 2 with a retention time of 1.887 min]
IC50: > 1000 nM
